In one series the test system is 6 Hz seizures. The note with it: dose-dependent manner; cited from earlier work.
In a further series the test system is MES seizures. The note with it: in vivo; cited from earlier work.
The target of another series is mGlu1a (Homo sapiens, UniProt Q13255). The note with it: cited from earlier work.
The next series has as its target mGlu5a (Homo sapiens, UniProt P41594). The note with it: cited from earlier work.
Series [1] is described as follows: Minimal motor impairment (rotarod). The format is in vivo, mice. The conditions noted are these: for # rotarod motor impairment/# tested: 0.5 h. Here is the method: Acute MMI was assessed by a combination of direct observations of the animal for overt symptoms of the animal's neurological or muscular function. In mice, the rotarod procedure was used to disclose minimal muscular or neurological impairment. When a mouse is placed on a rod that rotates at a speed of 6 rpm, the animal can maintain its equilibrium for long periods of time. The animal was considered toxic if it fell off this rotating rod three times during a 1 min period.
In the determination of an ED50 or TD50 for each test compound, the first dose administered is usually the same dose as that used in a successful TPE determination.
If the initial dose employed was effective or toxic in more than 50% of animals, the next dose would be one-half that of the initial dose; if the initial dose was effective or toxic in less than 50% of animals, the following dose would be twice that of the initial dose. Third and fourth doses were selected to produce an evenly spaced dose response line. There should be a minimum of 4 points either including or lying between 0 and 100%.
In general terms: The rotarod test checks motor coordination on a turning rod.

The test system of series [2] is 6 Hz (44 mA) psychomotor seizures. As to the kind of experiment: 6 Hz psychomotor seizure test, 44 mA (alone, combination with LEV, isobolographic study). Type of series: in vivo, mice. Here is the method: Test compounds were administered using an optimal fluid volume to body fluid ratio. Test compounds were administered to mice in a volume of 0.01 mL/g of body weight (White H. S., et al., General Principles: Experimental selection, quantification, and evaluation of antiepileptic drugs, in Antiepileptic Drugs, Fourth Edition, […], and B. S. Meldrum, Editors. 1995, Raven Press, Ltd.: New York, pp. 99-110). For subcutaneous (s.c.) administration, the test compounds were administered into a loose fold of skin along the back of the animal except compound 6-b, which was administered orally (p.o). […] The animals were maintained on an adequate diet (Prolab RMH 3000) and allowed free access to food and water, except during the short time they were removed from their cage for testing. Animals newly received in the laboratory were allowed sufficient time to correct for possible food and water restriction incurred during transit before being employed in testing. All mice were housed in plastic cages in specially constructed rooms with controlled humidity, exchange of air and controlled lighting (12 hours on-12 hours off). The animals were housed, fed, and handled in a manner consistent with the recommendations in the National Council Publication, “Guide for the Care and Use of Laboratory Animals”. In the determination of an ED50 or TD50 for each test compound, the first dose administered is usually the same dose as that used in a successful TPE determination. […] Third and fourth doses were selected to produce an evenly spaced dose response line. […] The 6 Hz seizure test is used as a model of pharmacoresistant limbic seizures. […] Focal seizures were induced in mice via corneal stimulation (6 Hz, 0.2 msec rectangular pulse, 3 sec duration; Barton et al. 2001). Mice were tested at either 32 mA or 44 mA. […] The seizures that arise from corneal stimulation in this assay are characterized by a minimal clonic phase followed by stereotyped automatistic behaviors including stun, forelimb clonus, twitching of the vibrissae, and Straub-tail. Animals not displaying these behaviors were considered protected. […] In addition to recording the efficacy and toxicity data for these compounds alone or in combination, both plasma and brain samples were collected from each of the groups for pharmacokinetic/pharmacokinetic analysis. No pharmacokinetic interaction was observed based on compound levels in the plasma and brain samples (data not shown). Isobolographic studies were conducted for the combined administration of Co. […] Studies were conducted according to previously described methods (Madsen et al. 2011). Initial ED50 values were determined for both Co. […] Co. […] Doses used were proportional to calculated ED50 values. […] Experimental treatment doses (see Table 4) were based on theoretical values and adjusted according to observed effects. Experimentally determined ED50 (+SEM) values for each fixed dose-ratio combination were compared to the theoretical values (t-test) for statistical purposes. […] Subsequently, the experimental combined doses were determined for the same paradigms in the 6 Hz seizure test (Table 4 below).

A further series concerns corneal kindled seizures. As to the kind of experiment: Mouse corneal kindling model. Type of series: in vivo, mice. The conditions noted are these: 100 mg/kg s.c.; Racine score 0-5. Here is the method:
After the mice reached a stable kindled state, the test compound or vehicle was administered and, at the previously determined TPE, each animal was given the electrical stimulus indicated above. […] One dose of LEV and two doses of Co.

The subject of series [3] is 6 Hz (32 mA) psychomotor seizures. The series can be described thus: 6 Hz psychomotor seizure test, 32 mA (incl. TPE determination). Type of series: in vivo, mice. The conditions noted are these: for # protected/# tested: 0.5 h. Here is the method:
Test compounds were administered using an optimal fluid volume to body fluid ratio. Test compounds were administered to mice in a volume of 0.01 mL/g of body weight (White H. S., et al., General Principles: Experimental selection, quantification, and evaluation of antiepileptic drugs, in Antiepileptic Drugs, Fourth Edition, […], and B. S. Meldrum, Editors. 1995, Raven Press, Ltd.: New York, pp. 99-110). For subcutaneous (s.c.) administration, the test compounds were administered into a loose fold of skin along the back of the animal except compound 6-b, which was administered orally (p.o). […] The animals were maintained on an adequate diet (Prolab RMH 3000) and allowed free access to food and water, except during the short time they were removed from their cage for testing. Animals newly received in the laboratory were allowed sufficient time to correct for possible food and water restriction incurred during transit before being employed in testing. All mice were housed in plastic cages in specially constructed rooms with controlled humidity, exchange of air and controlled lighting (12 hours on-12 hours off). The animals were housed, fed, and handled in a manner consistent with the recommendations in the National Council Publication, “Guide for the Care and Use of Laboratory Animals”. In the determination of an ED50 or TD50 for each test compound, the first dose administered is usually the same dose as that used in a successful TPE determination. […] Third and fourth doses were selected to produce an evenly spaced dose response line. […] TPE was determined using the 6 Hz (32 mA) assay. […] The 6 Hz seizure test is used as a model of pharmacoresistant limbic seizures. […] Focal seizures were induced in mice via corneal stimulation (6 Hz, 0.2 msec rectangular pulse, 3 sec duration; Barton et al. 2001). Mice were tested at either 32 mA or 44 mA. […] The seizures that arise from corneal stimulation in this assay are characterized by a minimal clonic phase followed by stereotyped automatistic behaviors including stun, forelimb clonus, twitching of the vibrissae, and Straub-tail. Animals not displaying these behaviors were considered protected.

mGlu5a, sequence (P41594 21-1180 isoform P41594-2): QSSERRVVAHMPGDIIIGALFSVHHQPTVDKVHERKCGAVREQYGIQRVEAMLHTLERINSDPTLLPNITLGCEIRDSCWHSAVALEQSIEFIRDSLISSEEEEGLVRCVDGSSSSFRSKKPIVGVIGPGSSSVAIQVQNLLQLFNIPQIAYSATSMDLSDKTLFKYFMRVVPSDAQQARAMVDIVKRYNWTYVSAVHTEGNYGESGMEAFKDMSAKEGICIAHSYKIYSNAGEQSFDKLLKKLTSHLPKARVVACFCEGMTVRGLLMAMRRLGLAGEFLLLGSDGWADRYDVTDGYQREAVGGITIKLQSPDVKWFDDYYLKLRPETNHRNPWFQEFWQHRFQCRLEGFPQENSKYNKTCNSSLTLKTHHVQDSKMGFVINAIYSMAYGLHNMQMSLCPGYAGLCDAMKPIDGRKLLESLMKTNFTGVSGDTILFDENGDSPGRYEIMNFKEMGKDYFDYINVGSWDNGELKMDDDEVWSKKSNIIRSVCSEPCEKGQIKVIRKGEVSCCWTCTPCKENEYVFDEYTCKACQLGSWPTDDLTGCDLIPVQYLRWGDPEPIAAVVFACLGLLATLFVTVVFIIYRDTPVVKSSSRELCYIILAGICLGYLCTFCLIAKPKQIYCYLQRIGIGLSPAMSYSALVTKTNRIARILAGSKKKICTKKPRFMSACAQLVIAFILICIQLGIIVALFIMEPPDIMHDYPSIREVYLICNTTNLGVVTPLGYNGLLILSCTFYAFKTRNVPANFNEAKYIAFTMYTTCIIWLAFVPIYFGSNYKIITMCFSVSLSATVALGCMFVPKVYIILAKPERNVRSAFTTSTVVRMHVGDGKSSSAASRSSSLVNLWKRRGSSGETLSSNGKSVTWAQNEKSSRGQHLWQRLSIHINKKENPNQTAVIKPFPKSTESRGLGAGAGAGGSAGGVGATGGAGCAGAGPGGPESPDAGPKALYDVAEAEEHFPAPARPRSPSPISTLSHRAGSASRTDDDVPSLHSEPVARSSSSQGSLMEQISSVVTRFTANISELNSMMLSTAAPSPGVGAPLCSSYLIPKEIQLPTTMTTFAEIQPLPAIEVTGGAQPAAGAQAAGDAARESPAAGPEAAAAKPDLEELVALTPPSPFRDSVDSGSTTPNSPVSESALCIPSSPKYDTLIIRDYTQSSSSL
mGlu1a, sequence (Q13255 19-1194): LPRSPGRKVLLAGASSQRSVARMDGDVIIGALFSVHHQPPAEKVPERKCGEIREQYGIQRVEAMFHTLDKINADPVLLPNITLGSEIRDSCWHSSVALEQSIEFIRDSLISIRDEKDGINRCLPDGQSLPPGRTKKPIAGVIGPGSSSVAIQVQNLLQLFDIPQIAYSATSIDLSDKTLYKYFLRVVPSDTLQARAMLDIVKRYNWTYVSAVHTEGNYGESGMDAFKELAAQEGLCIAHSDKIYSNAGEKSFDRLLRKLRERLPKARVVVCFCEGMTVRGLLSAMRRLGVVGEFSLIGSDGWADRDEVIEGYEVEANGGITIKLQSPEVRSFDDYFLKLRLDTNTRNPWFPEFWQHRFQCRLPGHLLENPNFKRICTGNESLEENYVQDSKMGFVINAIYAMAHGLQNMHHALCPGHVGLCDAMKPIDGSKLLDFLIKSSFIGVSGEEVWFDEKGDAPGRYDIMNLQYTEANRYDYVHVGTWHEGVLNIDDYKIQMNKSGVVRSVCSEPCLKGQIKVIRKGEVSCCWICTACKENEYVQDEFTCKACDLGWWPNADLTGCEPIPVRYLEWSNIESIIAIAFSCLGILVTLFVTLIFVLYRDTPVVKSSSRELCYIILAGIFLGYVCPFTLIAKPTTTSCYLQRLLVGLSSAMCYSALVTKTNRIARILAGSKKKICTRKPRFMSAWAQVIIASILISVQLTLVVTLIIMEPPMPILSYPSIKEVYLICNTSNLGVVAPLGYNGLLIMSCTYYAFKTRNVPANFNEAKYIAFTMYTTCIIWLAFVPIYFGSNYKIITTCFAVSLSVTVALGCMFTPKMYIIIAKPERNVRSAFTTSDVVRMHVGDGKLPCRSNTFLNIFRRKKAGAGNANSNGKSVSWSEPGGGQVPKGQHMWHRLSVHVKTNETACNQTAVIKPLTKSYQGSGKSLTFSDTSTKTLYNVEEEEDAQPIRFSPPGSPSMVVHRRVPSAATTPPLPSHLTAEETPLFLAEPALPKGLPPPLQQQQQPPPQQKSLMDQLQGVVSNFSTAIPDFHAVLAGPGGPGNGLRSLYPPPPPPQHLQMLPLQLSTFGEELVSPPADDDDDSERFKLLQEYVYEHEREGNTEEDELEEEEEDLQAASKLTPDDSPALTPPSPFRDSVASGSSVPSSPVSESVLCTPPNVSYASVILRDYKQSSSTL

In the case of `N[C@@]1(C(=O)O)CS[C@H]2[C@H](C(=O)O)[C@H]21` [LY389795], the “activity in the 6 Hz model” value in the series on 6 Hz seizures is listed as “effective”. Besides, the “activity in maximal electroshock (MES) seizure test” value with MES seizures is “ineffective”.
One may read the TD50 as the 50% point of the dose-response relation for the toxic effect studied. The ED50 is the dose at which the effect has come halfway, by size or by number of responders. As for `N[C@@]1(C(=O)O)CS(=O)(=O)[C@H]2[C@H](C(=O)O)[C@H]21` [LY-404039, reference compound], the “activity at mGlu1a” value on mGlu1a is “no activity”. At mGlu5a, the “activity at mGlu5a” value is “no activity”. The “# rotarod motor impairment/# tested” value is 1/16 in series [1] (5 mg/kg s.c., 32 mA group); 0/16 in series [1] (5 mg/kg s.c., 44 mA group); 0/8 in series [1] (10 mg/kg s.c., 32 mA group); 1/8 in series [1] (10 mg/kg s.c., 44 mA group); 1/8 in series [1] (20 mg/kg s.c., 32 mA group); 1/8 in series [1] (20 mg/kg s.c., 44 mA group). For the same compound, the “# rotarod motor impairment/# tested” value is 1/8 in series [1] (40 mg/kg s.c., 32 mA group) and 2/8 in series [1] (40 mg/kg s.c., 44 mA group). Also, the “mice with impairment out of total” value in series [1] (40 mg/kg s.c., 32 mA and 44 mA groups combined) was “^a40 mg/kg-3 out of 16 total (32 mA and 44 mA combined) with impairment”. In series [1] (mouse, in vivo, sc, rotarod), the TD50 at 0.5 h was > 40 mg/kg. In addition, the “activity when administered alone” value in series [2] (5 mg/kg s.c.) is recorded as “^bLY404039 (s.c.) 5 mg/kg tested in combination with LEV (i.p.); LY404039 5 mg/kg was not active when administered alone”. Further, the responders at 5 mg/kg in series [2] (Mus musculus, sc, 0.5 h, 5 mg/kg s.c., 0.5 h, read-out: # protected/# tested) is 0%. Also, the responders at 10 mg/kg in series [2] (Mus musculus, sc, 0.5 h, 10 mg/kg s.c., 0.5 h, read-out: # protected/# tested (converted)) is 37.5%. Also, the responders at 20 mg/kg in series [2] (Mus musculus, sc, 0.5 h, 20 mg/kg s.c., 0.5 h, read-out: # protected/# tested (converted)) is 87.5%. The responders at 40 mg/kg in series [2] (Mus musculus, sc, 0.5 h, 40 mg/kg s.c., 0.5 h, read-out: # protected/# tested (converted)) was 87.5%. Also, the ED50 in series [2] (Mus musculus, sc, at TPE, compound alone, read-out: ED50 (95% CI) 44 mA) is 14.1 mg/kg; in series [3] (Mus musculus, sc, at TPE, read-out: ED50 (95% CI) 32 mA), 10.2 mg/kg. In addition, the “activity in the 6 Hz 44 mA test” value in series [2] (result in words) was “activity in both 6 Hz tests was seen”. In series [2] (result in words), the “pharmacodynamic interaction with LEV in the 6 Hz model” value is recorded as “synergy was seen”. For the same compound, in the series with corneal kindled seizures, the “Seizure score (dose) Corneal kindling” value is on record as 3.1. Further, the “# protected/# tested” value is given as 1/16 in series [3] (5 mg/kg s.c.), 5/8 in series [3] (10 mg/kg s.c.), 6/8 in series [3] (20 mg/kg s.c.) and 8/8 in series [3] (40 mg/kg s.c.). Further, the “activity in the 6 Hz 32 mA test” value in series [3] (result in words) is listed as “activity in both 6 Hz tests was seen”. For the same compound, the “ED50 (95% CI) 32 mA” value in series [3] (s.c., at TPE) is “ED50 (95% CI): 10.9 mg/kg (7.8 to 15.9)”.

The record behind these values is patent US20250288584A1, “COMBINATIONS COMPRISING POSITIVE ALLOSTERIC MODULATORS OR ORTHOSTERIC AGONISTS OF METABOTROPIC GLUTAMATERGIC RECEPTOR SUBTYPE 2 AND THEIR USE” (JANSSEN PHARMACEUTICA NV, priority 2014, published 2025).
